14 compounds from patent US8168592B2 (Amgen Inc., priority 2005, dated 2012) can be followed below.

For this test, the target named is T1, CGRP1 receptor (Homo sapiens, UniProt O60894+Q16602).
T1 construct: SK-N-MC cells express CRLR and RAMP1, which form CGRP1 receptor; endogenous in cells; host or cells: SK-N-MC human neuroblastoma cells
Kind of test: in vitro CGRP1 receptor mediated cAMP assay in SK-N-MC cells. The class given is cell-based. As for the experimental part:
The in vitro cAMP assay employed a human neuroblastoma-derived cell line (SK-N-MC). SK-N-MC cells express CRLR and RAMP1, which form CGRP1 receptor. CGRP1 receptor is a G-protein coupled receptor linked to the stimulatory G-protein, Gs. […] Briefly, two days before the assay, the cells were plated in 96-well plates in growth medium. On the day of the assay cells were rinsed with PBS followed by the addition of 60 μl of plasma free medium for 15 minutes at room temperature. […] The medium was then removed and the cells were lysed with 100 μl lysis buffer for 30 minutes at 37° C. for 30 minutes. Using a Tropix ELISA kit (Applied Biosystems, Foster City, Calif.), a cAMP-AP conjugate was diluted (1:100) and added (30 μl) to each well of a 96-well ELISA plate. An aliquot of the lysis buffer from the cell plate was then added to the ELISA plate followed by an aliquot of the cAMP antibody. This mixture was incubated for 1 hour at room temperature with gentle shaking. The ELISA plate was then washed 6× with wash buffer followed by the additions of a substrate enhancer. This mixture was incubated for 30 minutes at room temperature and then read on a MicroBeta Jet or EnVision plate reader. The results were analyzed using Prism (GraphPad).

Setting [1] is: Table 2C, unconjugated peptide, read-out: Peptide IC50.

Read-outs that look alike come from different tables or passages of the source. Bridge positions count the residues as written; N and C are the ends. Square brackets hold non-standard residues; d marks the D form. Peptide text beside a SMILES is read from it. Oic = O=C(O)[C@@H]1C[C@@H]2CCCC[C@@H]2N1; hArg = N=C(N)NCCCC[C@H](N)C(=O)O; Cit = NC(=O)NCCC[C@H](N)C(=O)O; Aze = O=C(O)[C@@H]1CCN1

T1 sequence (Q16602 23-461): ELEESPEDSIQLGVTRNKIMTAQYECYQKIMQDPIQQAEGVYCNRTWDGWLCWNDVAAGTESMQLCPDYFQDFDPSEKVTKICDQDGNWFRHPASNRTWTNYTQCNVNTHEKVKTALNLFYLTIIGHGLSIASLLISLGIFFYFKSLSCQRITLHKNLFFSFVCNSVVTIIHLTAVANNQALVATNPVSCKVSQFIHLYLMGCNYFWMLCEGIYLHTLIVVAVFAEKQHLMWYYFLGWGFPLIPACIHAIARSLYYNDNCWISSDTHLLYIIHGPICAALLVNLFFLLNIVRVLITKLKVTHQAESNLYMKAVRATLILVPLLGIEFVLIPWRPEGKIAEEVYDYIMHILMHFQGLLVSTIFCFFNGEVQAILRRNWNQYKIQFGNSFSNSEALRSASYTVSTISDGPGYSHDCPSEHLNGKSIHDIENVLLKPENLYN
T1 sequence (O60894 27-148): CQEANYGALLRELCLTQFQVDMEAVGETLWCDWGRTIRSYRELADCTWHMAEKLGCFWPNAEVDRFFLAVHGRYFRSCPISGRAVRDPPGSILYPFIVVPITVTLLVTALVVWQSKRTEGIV

On to `CC(=O)N[C@@H](CCCCN)C(=O)N[C@@H](Cc1c[nH]c2ccccc12)C(=O)N[C@H](C(=O)N[C@H](C(=O)N[C@@H](Cc1c[nH]cn1)C(=O)N[C@@H](CCCNC(N)=O)C(=O)N[C@@H](CC(C)C)C(=O)N[C@@H](C)C(=O)NCC(=O)N[C@@H](CC(C)C)C(=O)N[C@@H](CC(C)C)C(=O)N[C@@H](CO)C(=O)N[C@@H](CCCNC(N)=O)C(=O)N[C@@H](CO)C(=O)NCC(=O)NCC(=O)N[C@H](C(=O)N[C@H](C(=O)N[C@@H](CCCNC(=N)N)C(=O)N[C@@H](CCCCN)C(=O)N[C@@H](CC(N)=O)C(=O)N[C@@H](Cc1ccccc1)C(=O)N[C@H](C(=O)N1CCC[C@H]1C(=O)N[C@H](C(=O)N[C@@H](CC(=O)O)C(=O)N[C@H](C(=O)NCC(=O)N1CCC[C@H]1C(=O)N[C@@H](CCCCN)C(=O)N[C@@H](C)C(=O)N[C@@H](Cc1ccccc1)C(N)=O)C(C)C)[C@@H](C)O)C(C)C)C(C)C)C(C)C)[C@@H](C)O)C(C)C` [compound 128] (Ac-KWVTH[Cit]LAGLLS[Cit]SGGVVRKNFVPTDVGPKAF-NH2), for which the IC50 (Table 2A, read-out: IC50) came to 13 nM. For the compound “SEQ ID NO:42 (Ac-WVTHRLAGLLS[dR]SGGVVRCNFVPTDVGPFAF-NH2; not fully specified (residue 19); printed as Ac-WVTHRLAGLLSrSGGVVRCNFVPTDVGPFAF-NH2)”, the “loss in antagonist activity on PEGylation relative to the unconjugated parent peptide” value (cAMP assay) is “greater than 32 fold”. With `CC(=O)N[C@@H](Cc1c[nH]c2ccccc12)C(=O)N[C@H](C(=O)N[C@H]1CCC(=O)NCCCC[C@@H](C(=O)NCC(=O)N[C@@H](CC(C)C)C(=O)N[C@@H](CC(C)C)C(=O)N[C@@H](CO)C(=O)N[C@@H](CCCNC(N)=O)C(=O)N[C@@H](CO)C(=O)NCC(=O)N2CC[C@H]2C(=O)N[C@H](C(=O)N[C@H](C(=O)N[C@@H](CCCCNC(=N)N)C(=O)N[C@@H](CCCCN)C(=O)N[C@@H](CC(N)=O)C(=O)N[C@@H](Cc2ccccc2)C(=O)N[C@H](C(=O)N2CCC[C@H]2C(=O)N[C@H](C(=O)N[C@@H](CC(=O)O)C(=O)N[C@H](C(=O)NCC(=O)N2CCC[C@H]2C(=O)N[C@@H](Cc2ccccc2)C(=O)N[C@@H](C)C(=O)N[C@@H](Cc2ccccc2)C(N)=O)C(C)C)[C@@H](C)O)C(C)C)C(C)C)C(C)C)NC(=O)[C@H](CC(C)C)NC(=O)[C@H](CCCCNC(=N)N)NC(=O)[C@H](Cc2c[nH]cn2)NC1=O)C(C)C` [compound 909] (Ac-WVEH[hArg]LKGLLS[Cit]SG[Aze]VV[hArg]KNFVPTDVGPFAF-NH2; lactam 3-7), the IC50 under setting [1] was 3.45 nM. Same read-out and setting: the result for `CC(=O)N[C@@H](Cc1c[nH]c2ccccc12)C(=O)N[C@H](C(=O)N[C@H](C(=O)N[C@@H](Cc1cnc[nH]1)C(=O)N[C@@H](CCCNC(=N)N)C(=O)N[C@@H](CC(C)C)C(=O)N[C@@H](C)C(=O)NCC(=O)N[C@@H](CC(C)C)C(=O)N[C@@H](CC(C)C)C(=O)N[C@@H](CO)C(=O)N[C@@H](CCCNC(N)=O)C(=O)N[C@@H](CO)C(=O)NCC(=O)NCC(=O)N[C@H](C(=O)N[C@H](C(=O)N[C@@H](CCCN=C(N)N)C(=O)N[C@@H](CCCCN)C(=O)N[C@@H](CC(N)=O)C(=O)N[C@@H](Cc1ccccc1)C(=O)N[C@H](C(=O)N1CCC[C@H]1C(=O)N[C@H](C(=O)N[C@@H](CC(=O)O)C(=O)N[C@H](C(=O)NCC(=O)N1CCC[C@H]1C(=O)N[C@@H](Cc1ccccc1)C(=O)N[C@@H](C)C(=O)N[C@@H](Cc1ccccc1)C(N)=O)C(C)C)[C@@H](C)O)C(C)C)C(C)C)C(C)C)[C@@H](C)O)C(C)C` [compound 862] reads 0.58 nM. Turning to `CC(=O)N[C@@H](Cc1c[nH]c2ccccc12)C(=O)N[C@H](C(=O)N[C@H](C(=O)N[C@@H](Cc1c[nH]cn1)C(=O)N[C@@H](CCCNC(N)=O)C(=O)N[C@@H](CC(C)C)C(=O)N[C@@H](C)C(=O)NCC(=O)N[C@@H](CC(C)C)C(=O)N[C@@H](CC(C)C)C(=O)N[C@@H](CO)C(=O)N[C@@H](CCCNC(N)=O)C(=O)N[C@@H](CO)C(=O)NCC(=O)NCC(=O)N[C@H](C(=O)N[C@H](C(=O)N[C@@H](CCCCNC(=N)N)C(=O)N[C@@H](CCCCN)C(=O)N[C@@H](CC(N)=O)C(=O)N[C@@H](Cc1ccccc1)C(=O)N[C@H](C(=O)N1CCC[C@H]1C(=O)N[C@H](C(=O)N[C@@H](CC(=O)O)C(=O)N[C@H](C(=O)NCC(=O)N1CCC[C@H]1C(=O)N[C@@H](Cc1ccccc1)C(N)=O)C(C)C)[C@@H](C)O)C(C)C)C(C)C)C(C)C)[C@@H](C)O)C(C)C` [compound 655] (Ac-WVTH[Cit]LAGLLS[Cit]SGGVV[hArg]KNFVPTDVGPF-NH2), under “Table 2A, read-out: IC50”, the IC50 was more than 1000 nM. “SEQ ID NO:21 (WVTHXLAGLLSRSGGVVRKNFVPTDVGPFAF; CGRP peptide; MOD_RES (1)..(1): …ON; MISC_FEATURE (5)..(5): xaa=homoarginine; MOD_RES (31)..(31): AMIDATION)”: the “antagonist activity in cAMP assay, in words” value was “well tolerated”.

Take “SEQ ID NO:8 (Ac-WVTHRLAGLLSRSGGVVRCNFVPTDVGPFAF-NH2)”: the “antagonist activity in cAMP assay, in words” value is listed as “somewhat less active”. Besides, under “unPEGylated peptides”, the “improvement in potency compared to SEQ ID NO:9” value is reported as “more than 4 fold”. In turn, `CC(=O)N[C@@H](Cc1c[nH]c2ccccc12)C(=O)N[C@H](C(=O)N[C@H]1CCC(=O)NCCCC[C@@H](C(=O)NCC(=O)N[C@@H](CC(C)C)C(=O)N[C@@H](CC(C)C)C(=O)N[C@@H](CO)C(=O)N[C@@H](CCCNC(N)=O)C(=O)N[C@@H](CO)C(=O)NCC(=O)NCC(=O)N[C@H](C(=O)N[C@H](C(=O)N[C@@H](CCCCNC(=N)N)C(=O)N[C@@H](CCCCN)C(=O)N[C@@H](CC(N)=O)C(=O)N[C@@H](Cc2ccccc2)C(=O)N[C@H](C(=O)N2CCC[C@H]2C(=O)N[C@H](C(=O)N[C@@H](CC(=O)O)C(=O)N[C@H](C(=O)NCC(=O)N2CCC[C@H]2C(=O)N[C@@H](Cc2ccccc2)C(=O)N[C@@H](C)C(=O)N[C@@H](Cc2ccccc2)C(N)=O)C(C)C)[C@@H](C)O)C(C)C)C(C)C)C(C)C)NC(=O)[C@H](CC(C)C)NC(=O)[C@H](CCCNC(=N)N)NC(=O)[C@H](Cc2c[nH]cn2)NC1=O)C(C)C` [compound 663] (Ac-WVEHRLKGLLS[Cit]SGGVV[hArg]KNFVPTDVGPFAF-NH2; lactam 3-7) registered an IC50 (IC50, Table 2A) of 1.22 to 2.06 nM. For “Ac-WVTHRLAGLLSRSGGVKRNNFVPTDVGPFAF-NH2 [compound 823]”, the IC50 (Table 2D, read-out: IC50) worked out at 0.51 nM. Turning to `CC(=O)N[C@@H](Cc1c[nH]c2ccccc12)C(=O)N[C@H](C(=O)N[C@H](C(=O)N[C@@H](Cc1c[nH]cn1)C(=O)N[C@@H](CCC(N)=O)C(=O)N[C@@H](CC(C)C)C(=O)N[C@@H](C)C(=O)NCC(=O)N[C@@H](CC(C)C)C(=O)N[C@@H](CC(C)C)C(=O)N[C@@H](CO)C(=O)N[C@@H](CCC(N)=O)C(=O)N[C@@H](CO)C(=O)NCC(=O)NCC(=O)N[C@H](C(=O)N[C@H](C(=O)N[C@@H](CCCCNC(=N)N)C(=O)N[C@@H](CCCCN)C(=O)N[C@@H](CC(N)=O)C(=O)N[C@@H](Cc1ccccc1)C(=O)N[C@H](C(=O)N1CCC[C@H]1C(=O)N[C@H](C(=O)N[C@@H](CC(=O)O)C(=O)N[C@H](C(=O)NCC(=O)N1CCC[C@H]1C(=O)N[C@@H](Cc1ccccc1)C(=O)N[C@@H](C)C(=O)N[C@@H](Cc1ccccc1)C(N)=O)C(C)C)[C@@H](C)O)C(C)C)C(C)C)C(C)C)[C@@H](C)O)C(C)C` [compound 885] (Ac-WVTHQLAGLLSQSGGVV[hArg]KNFVPTDVGPFAF-NH2), the IC50 under setting [1] is 1.42 nM. For the compound `CC(=O)N[C@H](C(=O)N[C@H](C(=O)N[C@@H](Cc1c[nH]cn1)C(=O)N[C@@H](CCCNC(N)=O)C(=O)N[C@@H](CC(C)C)C(=O)N[C@@H](C)C(=O)NCC(=O)N[C@@H](CC(C)C)C(=O)N[C@@H](CC(C)C)C(=O)N[C@@H](CO)C(=O)N[C@@H](CCCNC(N)=O)C(=O)N[C@@H](CO)C(=O)NCC(=O)NCC(=O)N[C@H](C(=O)N[C@H](C(=O)N[C@@H](CCCCNC(=N)N)C(=O)N[C@@H](CCCCN)C(=O)N[C@@H](CC(N)=O)C(=O)N[C@@H](Cc1ccccc1)C(=O)N[C@H](C(=O)N1CCC[C@H]1C(=O)N[C@H](C(=O)N[C@@H](CC(=O)O)C(=O)N[C@H](C(=O)NCC(=O)N1[C@H](C(=O)N[C@@H](Cc2ccccc2)C(=O)N[C@@H](C)C(=O)N[C@@H](Cc2ccccc2)C(N)=O)C[C@@H]2CCCC[C@@H]21)C(C)C)[C@@H](C)O)C(C)C)C(C)C)C(C)C)[C@@H](C)O)C(C)C` [compound 660] (Ac-VTH[Cit]LAGLLS[Cit]SGGVV[hArg]KNFVPTDVG[Oic]FAF-NH2), for the setting “Table 2A, read-out: IC50”, the IC50 stood at 3 nM. In the case of “Ac-WVTHRLAGLLSASGGVVRCNFVPTDVGPFAF-NH2 [compound 772]”, the IC50 (Table 2D, read-out: IC50) is 2.75 nM.

As to “Ac-WVTHRLAGLLSQSGGVVRKNFVPTDVGPFAF-NH2 [compound 856]”, under setting [1], the IC50 amounted to 0.47 nM. As to `CC(=O)N[C@@H](Cc1c[nH]c2ccccc12)C(=O)N[C@H](C(=O)N[C@H](C(=O)N[C@@H](Cc1c[nH]cn1)C(=O)N[C@@H](CCCNC(=N)N)C(=O)N[C@@H](CC(C)C)C(=O)N[C@@H](C)C(=O)NCC(=O)N[C@@H](CC(C)C)C(=O)N[C@@H](CC(C)C)C(=O)N[C@@H](CO)C(=O)N[C@H](CCCNC(=N)N)C(=O)N[C@@H](CO)C(=O)NCC(=O)NCC(=O)N[C@H](C(=O)N[C@H](C(=O)N[C@@H](CCCNC(=N)N)C(=O)N[C@@H](CS)C(=O)N[C@@H](CC(N)=O)C(=O)N[C@@H](Cc1ccccc1)C(=O)N[C@H](C(=O)N1CCC[C@H]1C(=O)N[C@H](C(=O)N[C@@H](CC(=O)O)C(=O)N[C@H](C(=O)NCC(=O)N1CCC[C@H]1C(=O)N[C@@H](Cc1ccccc1)C(=O)N[C@@H](C)C(=O)N[C@@H](Cc1ccccc1)C(N)=O)C(C)C)[C@@H](C)O)C(C)C)C(C)C)C(C)C)[C@@H](C)O)C(C)C` [compound 776] (Ac-WVTHRLAGLLS[dR]SGGVVRCNFVPTDVGPFAF-NH2), the 50% inhibitory concentration (IC50) (Table 2D, read-out: IC50) was 0.59 nM.
